Experimental data as given in ChEMBL document CHEMBL3045826, “Synthesis of new derivatives of 2,2-dimethyl-2,3-dihydro-7-benzo[b]furanol with potential antimicrobial activity” (Med Chem Res, 2009).
Values after ≈ are worked out from the molar mass of the structure shown. Active and inactive are the calls of the source. No cut-off for these calls is given here.

Assays:
Pseudomonas aeruginosa [1] = assay: Antibacterial activity against Pseudomonas aeruginosa NCTC 6749 after 18 hr; assay type: functional, organism-based
Enterococcus hirae [2] = assay: Antibacterial activity against Enterococcus hirae ATCC 10541 after 18 hr; assay type: functional; conditions: ATCC 10541, 18 h
Staphylococcus aureus [3] = assay: Antibacterial activity against Staphylococcus aureus ATCC 6538P after 18 hr; assay type: functional
[4] = system: Bordetella bronchiseptica; assay: Antibacterial activity against Bordetella bronchiseptica ATCC 461 at 400 ug after 18 hr by disk diffusion method; assay type: functional
Candida albicans [5] = assay: Antifungal activity against Candida albicans ATCC 90028 after 18 hr; assay type: functional; conditions: ATCC 90028, 18 h
Pseudomonas aeruginosa [6] = assay: Antibacterial activity against Pseudomonas aeruginosa ATCC 15442 at 400 ug after 18 hr by disk diffusion method; assay type: functional; conditions: ATCC 15442, 18 h, read-out: DIZ
Staphylococcus aureus [7] = assay: Antibacterial activity against Staphylococcus aureus NCTC 4163 after 18 hr; assay type: functional; conditions: NCTC 4163, 18 h
Staphylococcus aureus [8] = assay: Antibacterial activity against Staphylococcus aureus ATCC 6538P at 400 ug after 18 hr by disk diffusion method; assay type: functional; conditions: read-out: DIZ
Candida parapsilosis [9] = assay: Antifungal activity against Candida parapsilosis ATCC 22019 at 400 ug after 24 to 48 hr by disk diffusion method; assay type: functional; conditions: Lodderomyces parapsilosis, read-out: DIZ
Candida parapsilosis [10] = assay: Antifungal activity against Candida parapsilosis ATCC 22019 after 18 hr; assay type: functional; conditions: Lodderomyces parapsilosis, ATCC 22019, 18 h
Staphylococcus aureus [11] = assay: Antibacterial activity against Staphylococcus aureus ATCC 29213 after 18 hr; assay type: functional; conditions: ATCC 29213, 18 h
Escherichia coli [12] = assay: Antibacterial activity against Escherichia coli ATCC 10538 at 400 ug after 18 hr by disk diffusion method; assay type: functional
Candida albicans [13] = assay: Antifungal activity against Candida albicans ATCC 10231 at 400 ug after 24 to 48 hr by disk diffusion method; assay type: functional; conditions: read-out: DIZ
Bacillus subtilis [14] = assay: Antibacterial activity against Bacillus subtilis ATCC 6633 after 18 hr; assay type: functional; conditions: ATCC 6633, 18 h
Escherichia coli [15] = assay: Antibacterial activity against Escherichia coli NCTC 8196 after 18 hr; assay type: functional, organism-based
Staphylococcus aureus [16] = assay: Antibacterial activity against Staphylococcus aureus ATCC 29213 at 400 ug after 18 hr by disk diffusion method; assay type: functional; conditions: ATCC 29213, 18 h, read-out: DIZ
Proteus vulgaris [17] = assay: Antibacterial activity against Proteus vulgaris NCTC 4635 after 18 hr; assay type: functional; conditions: NCTC 4635, 18 h
Escherichia coli [18] = assay: Antibacterial activity against Escherichia coli ATCC 25922 after 18 hr; assay type: functional, organism-based
Escherichia coli [19] = assay: Antibacterial activity against Escherichia coli NCTC 8196 at 400 ug after 18 hr by disk diffusion method; assay type: functional
[20] = system: Human immunodeficiency virus 1; assay: Antiviral activity against Human immunodeficiency virus 1 infected human MT4 cells assessed as inhibition of virus-induced cytopathogenicity after 4 days by MTT assay; assay type: functional, organism-based; conditions: Human immunodeficiency virus 1, MT4, 96 h
Candida albicans [21] = assay: Antifungal activity against Candida albicans ATCC 10231 after 18 hr; assay type: functional; conditions: ATCC 10231, 18 h
Staphylococcus aureus [22] = assay: Antibacterial activity against Staphylococcus aureus NCTC 4163 at 400 ug after 18 hr by disk diffusion method; assay type: functional; conditions: NCTC 4163, 18 h, read-out: DIZ
Staphylococcus aureus [23] = assay: Antibacterial activity against Staphylococcus aureus ATCC 25923 at 400 ug after 18 hr by disk diffusion method; assay type: functional; conditions: ATCC 25923, 18 h, read-out: DIZ
[24] = Cytotoxicity against Homo sapiens (human) MT4 cells after 96 hr by MTT assay; assay type: cell-based
[25] = system: Bordetella bronchiseptica; assay: Antibacterial activity against Bordetella bronchiseptica ATCC 461 after 18 hr; assay type: functional, organism-based
Pseudomonas aeruginosa [26] = assay: Antibacterial activity against Pseudomonas aeruginosa NCTC 6749 at 400 ug after 18 hr by disk diffusion method; assay type: functional, organism-based
Bacillus subtilis [27] = assay: Antibacterial activity against Bacillus subtilis ATCC 6633 at 400 ug after 18 hr by disk diffusion method; assay type: functional; conditions: ATCC 6633, 18 h, read-out: DIZ
Candida albicans [28] = assay: Antifungal activity against Candida albicans ATCC 90028 at 400 ug after 24 to 48 hr by disk diffusion method; assay type: functional; conditions: read-out: DIZ
Enterococcus hirae [29] = assay: Antibacterial activity against Enterococcus hirae ATCC 10541 at 400 ug after 18 hr by disk diffusion method; assay type: functional; conditions: ATCC 10541, 18 h, read-out: DIZ
Escherichia coli [30] = assay: Antibacterial activity against Escherichia coli ATCC 10538 after 18 hr; assay type: functional, organism-based
Staphylococcus aureus [31] = assay: Antibacterial activity against Staphylococcus aureus ATCC 25923 after 18 hr; assay type: functional; conditions: ATCC 25923, 18 h
Pseudomonas aeruginosa [32] = assay: Antibacterial activity against Pseudomonas aeruginosa ATCC 15442 after 18 hr; assay type: functional; conditions: ATCC 15442, 18 h
Escherichia coli [33] = assay: Antibacterial activity against Escherichia coli ATCC 25922 at 400 ug after 18 hr by disk diffusion method; assay type: functional
Proteus vulgaris [34] = assay: Antibacterial activity against Proteus vulgaris NCTC 4635 at 400 ug after 18 hr by disk diffusion method; assay type: functional; conditions: NCTC 4635, 18 h, read-out: DIZ

CC1(C)Cc2c(Br)c(Br)c(Br)c(O)c2O1
MIC (Pseudomonas aeruginosa [1]): inactive | MIC (Enterococcus hirae [2]): 50 µg/mL (≈ 125 µM) | MIC (Staphylococcus aureus [3]): 25 µg/mL (≈ 62.4 µM) | diameter of the inhibition zone (DIZ) [4]: inactive | MIC (Candida albicans [5]): 200 µg/mL (≈ 499 µM) | zone of inhibition at 400 µg/disc (Pseudomonas aeruginosa [6]): 22 mm | MIC (Staphylococcus aureus [7]): 25 µg/mL (≈ 62.4 µM) | zone of inhibition at 400 µg/disc (Staphylococcus aureus [8]): 19 mm | zone of inhibition at 400 µg/disc (Candida parapsilosis [9]): 13 mm | MIC (Candida parapsilosis [10]): 200 µg/mL (≈ 499 µM) | MIC (Staphylococcus aureus [11]): 25 µg/mL (≈ 62.4 µM) | diameter of the inhibition zone (DIZ) (Escherichia coli [12]): inactive | zone of inhibition at 400 µg/disc (Candida albicans [13]): 13 mm | MIC (Bacillus subtilis [14]): 12.5 µg/mL (≈ 31.2 µM) | MIC (Escherichia coli [15]): inactive | zone of inhibition at 400 µg/disc (Staphylococcus aureus [16]): 18 mm | MIC (Proteus vulgaris [17]): 12.5 µg/mL (≈ 31.2 µM) | MIC (Escherichia coli [18]): inactive | diameter of the inhibition zone (DIZ) (Escherichia coli [19]): inactive | EC50 [20]: > 60 µM | MIC (Candida albicans [21]): 200 µg/mL (≈ 499 µM) | zone of inhibition at 400 µg/disc (Staphylococcus aureus [22]): 17 mm | zone of inhibition at 400 µg/disc (Staphylococcus aureus [23]): 18 mm | CC50 at 96 h [24]: 60 µM | MIC [25]: inactive | diameter of the inhibition zone (DIZ) (Pseudomonas aeruginosa [26]): inactive | zone of inhibition at 400 µg/disc (Bacillus subtilis [27]): 21 mm | zone of inhibition at 400 µg/disc (Candida albicans [28]): 14 mm | zone of inhibition at 400 µg/disc (Enterococcus hirae [29]): 16 mm | MIC (Escherichia coli [30]): inactive | MIC (Staphylococcus aureus [31]): 25 µg/mL (≈ 62.4 µM) | MIC (Pseudomonas aeruginosa [32]): 12.5 µg/mL (≈ 31.2 µM) | diameter of the inhibition zone (DIZ) (Escherichia coli [33]): inactive | zone of inhibition at 400 µg/disc (Proteus vulgaris [34]): 15 mm
